Measurements as given in article PMC5338303, “Unveiling the Metabolic Changes on Muscle Cell Metabolism Underlying p-Phenylenediamine Toxicity” (Frontiers in Molecular Biosciences, 2017).

How the values were obtained:
[1] = tested on: C2C12 cells; test: Cell cycle analysis (FACS, propidium iodide); type: cell-based, Mus musculus mouse; conditions: vs untreated cells
Method: Cell cycle was evaluated by measuring FACS (fluorescence-activated cell sorter) in an Epics XL flow cytometer at 488 nm (Coulter Corporation, Hialeah, FL, USA). This technique allows for the semiquantitation of DNA in each cell and permits to separate cells in G0 or G1 phase (one copy of DNA), G2 or M phase (after DNA duplication) and S phase (the amount of DNA per cell is in an intermediate state between the two previous conditions). For these measurements, C2C12 cells were cultivated in 6 well-plates (4 × 10^5 cells/well each) with 2 ml of culture medium. After 24 h of plated, PPD corresponding to IC50 and IC80 concentrations was added and cells were incubated for 24 h, in parallel, control C2C12 cells were cultured without PPD. All experiments were performed five times with two replicates for each experiment.

[2] = tested on: Wistar female rats; test: Toxicity after oral administration; general appearance, behavior and signs of morbidity (Irwin test); type: in vivo, rat; parameters: key to Myoglobiunuria: ++ represents the presence of myoglobinuria; conditions: for Ataxic Gait / Hypotonic Gait: animals affected/group; for Hipoactivity / Piloerection: duration
Method: The study was approved by the Ethics Committee on Animal Experimentation of University of Navarra. Wistar female rats, with a body weight of 160 g ± 20% (8 weeks old), were supplied by Harlan (Harlan Laboratories, Indianapolis, IN). The animals were housed in polycarbonate cages with stainless steel covers in a room under controlled temperature conditions (22 ± 3°C), controlled relative humidity (50 ± 20%) and light (12 h light–dark cycle). Air was exchanged 15 times/h sterile food supplied by Harlan (Harlan Laboratories, Indianapolis, IN) and controlled water was available ad libitum. The rats were housed in the study room for 5 days prior to the beginning of treatment in order to allow acclimatization to the environmental conditions. Finally, three rats were randomly assigned to each studied group corresponding to different PPD doses (10, 20, 40, and 60 mg/Kg) and control (DMSO).
The animals were divided into groups of three rats at random. A control group receiving the vehicle and four groups receiving PPD at several concentrations 10, 20, 40, and 60 mg/kg at single dose were included (Figure 1). The compound was administered in a volume of 300 μl of 100% DMSO by gavage. Animals were evaluated based on general appearance, behavior and signs of morbidity using the Irwin test (Castagné et al., [2012]), immediately following administration, 30 min, 1, 2, 4, and 8 h after the administration (Figure 1). All of the animals were weighed just before the acclimatization period, before administration and 24, 48, and 72 h after administration. At the end of the observation period (24, 48, and 72 h after administration), all the animals were anesthetized and blood samples were collected from tail and retro orbital sinus and centrifuged at 2000 × g for 30 min at 4°C to recover the serum (Figure 1). The serum was frozen and stored at −20°C until determination of biochemical parameters such as urea, creatinin, Glucose, aspartate aminotransferase (AST), alanine aminotransferase (ALT) and creatine kinase (CK), lactate dehydrogenase (LDH), at 24, 48, and 72 h before sacrificed in a CO2 chamber and autopsied. All of the tissues were observed grossly. Ovaries, kidneys, liver, spleen, heart, and lung were weighed and the relative organ weights were calculated. Serum CK and LDH levels were measured.

[3] = tested on: C2C12 cells; test: Biochemical characterization: glucose and lactate concentrations in culture medium; type: cell-based, Mus musculus mouse; conditions: PPD at IC50, 24 h
Method: Glucose and lactate concentrations were determined from culture medium at initial and end-time points by using Cobas Mira Plus chemistry analyzer (HORIBA ABX, Montpellier, France; Cisternas et al., [2016]).
Cells were cultured in DMEM (Biowithaker) °supplemented with 10% dialyzed heat-inactivated Fetal Bovine Serum (FBS), glucose (10 mM, 50% isotope enrichment [1,2-^13C2]-glucose), asparagine (20 mg/ml), penicillin (100 U/ml), and streptomycin (100 μg/ml). […] Initially each flask contained 10^6 cells and the incubation was carried out for 24 h. To separate medium and cell pellets, cells were centrifuged at the end of incubation (3000 × g, 5 min). Afterwards, pellet and medium were stored at −20°C for metabolite isolations.

[4] = tested on: C2C12 cells; test: Annexin V-Fluorescein isothiocyanate binding assay (apoptosis); type: cell-based, Mus musculus mouse
Description: This technique permits to determine whether a cell is at early or late apoptosis or necrotic state. In early apoptosis, Phosphatidylserine (PS) is translocated to the outer membrane allowing PS-annexin V-Fluorescein Isothiocyanate (FITC) binding. In late apoptosis, as well as in necrotic processes, cell membranes lose their integrity allowing PI to access the nucleus and bind the DNA bases. Next, by using FACS analysis one can determine PI and annexin V-FITC staining accumulation to differentiate non-apoptotic cells (PI– and annexin V–) from early apoptotic (PI− and annexin V+) and necrotic or late apoptotic (PI+) cells (Cortés et al., [2012]). The same amount of C2C12 cells mentioned for cell cycle assay was treated with PPD as previously described. Cells were then collected and resuspended in binding buffer (10 mM Hepes/NaOH, pH7.4, 140 mM NaCl, 2.5 mM CaCl2). Annexin V-FITC conjugate (1 μg/ml) was added and incubated for 30 min at room temperature in the dark. Just before FACS analysis [Bender medSystems (Innogenetics) human Annexin V-FITC Kit cat No. BMS306FI], cells were stained with 1 mg/ml PI solution. In each experiment ~20 × 10^3 cells per condition were analyzed and the experiment was performed five times.

Nc1ccc(N)cc1 [PPD, p-phenylenediamine]
decrease in the percentage of cells in G0/G1 phases ([1]; PPD at IC50, 24 h): 19%
increase in the population in S phase ([1]; PPD at IC50, 24 h): 13%
decrease in the percentage of cells in G0/G1 phases ([1]; PPD at IC80, 24 h): 32%
increase in the population in S phase ([1]; PPD at IC80, 24 h): 28%
Myoglobiunuria ([2]; 10 mg/kg single oral dose): ++
Ataxic Gait ([2]; 10 mg/kg single oral dose): 0/3
Hypotonic Gait ([2]; 10 mg/kg single oral dose): 0/3
Hipoactivity ([2]; 10 mg/kg single oral dose): 10 h
Piloerection ([2]; 10 mg/kg single oral dose): 2 to 4 h
Myoglobiunuria ([2]; 20 mg/kg single oral dose): ++
Ataxic Gait ([2]; 20 mg/kg single oral dose): 0/3
Hypotonic Gait ([2]; 20 mg/kg single oral dose): 0/3
Hipoactivity ([2]; 20 mg/kg single oral dose): 10 h
Piloerection ([2]; 20 mg/kg single oral dose): 2 to 4 h
Hipoactivity ([2]; 40 mg/kg single oral dose): 24 h
Piloerection ([2]; 40 mg/kg single oral dose): Until death
Ataxic Gait ([2]; 60 mg/kg single oral dose): 0/3
Hypotonic Gait ([2]; 60 mg/kg single oral dose): 3/3
Hipoactivity ([2]; 60 mg/kg single oral dose): 48 h
Piloerection ([2]; 60 mg/kg single oral dose): Until death
gait ([2]; 60 mg/kg, after 48 h, disappeared after 72 h): ataxic gait
signs observed at lower doses ([2]; 10 and 20 mg/kg, until 10 h of treatment): depressed activity and some of they had brown color urine or myoglobinuria
signs observed at higher doses ([2]; 40 and 60 mg/kg, until 4 h of treatment): total loss of equilibrium, hypotonic gait and piloerection
urine color ([2]; after 24 h of treatment, disappears at 48 and 72 h): all animals had urine brown color but in absence of hematuria
evolution of body weight ([2]; all groups, 10-60 mg/kg, up to 72 h): normal
persistence of muscular weakness ([2]; rat, in vivo): 3 days
glucose consumption (Δglucose) [3]: 2,42 ± 0,26 mM
lactate production (Δlactate) [3]: 1,5 ± 0,3 mM
early apoptosis ([4]; PPD at IC50, 24 h): 34.7%
late apoptosis ([4]; PPD at IC50, 24 h): 18.8%
early apoptosis ([4]; PPD at IC80, 24 h): 20.1%
late apoptosis ([4]; PPD at IC80, 24 h): 23.9%
